According to US6355799B1, “Substituted benzene compounds, process for their preparation, and herbicidal and defoliant compositions containing them” (ISK Americas Incorporated, priority 1997, dated 2002):

Columns and labels:
Type in all cases: in vivo
[1] = test system: upland rice (Oryza sp., var. Tebonnet, RICE); assay: Pre-emerge test, crop safety; conditions: rated 14 days after application, 0 = no damage, 100 = complete death
How it was run: (§1)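 Sandy loam pots; pre-emerge: sown 1 d pre-spray, surface-watered after, then bottom-watered. Post-emerge: sown 8–21 d before, 2–3 leaf stage, + 0.25% v/v NIS, bottom-watered. Acetone, 187 l/ha track spray, 15–1000 g ai/ha. 0–100 injury score, day 14.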

[2] = test system: field corn (Zea mays L., var. Dekalb 535, CORN); assay: Pre-emerge test, crop safety; conditions: rated 14 days after application, 0 = no damage, 100 = complete death
How it was run: as §1

[3] = test system: redroot pigweed (Amaranthus retroflexus, AMARE); assay: Pre-emerge test, greenhouse herbicide activity screening; conditions: rated 14 days after application, 0 = no damage, 100 = complete death
How it was run: (§2)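 Plants grown in 10 cm pots of sandy loam mix received acetone-dissolved compounds through a moving flat-fan nozzle. Doses ranged from 15 to 1000 g ai/ha. Pre-emerge pots were seeded one day earlier, post-emerge pots 8–21 days earlier. Fourteen days on, each pot was graded 0–100 for damage.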

[4] = test system: velvetleaf (Abutilon theophrasti, ABUTH); assay: as above; conditions: rated 14 days after application, 0 = no damage, 100 = complete death
How it was run: as §2

[5] = test system: johnsongrass (Sorghum halepense, SORHA); assay: as above; conditions: rated 14 days after application, 0 = no damage, 100 = complete death
How it was run: as §2

[6] = test system: green foxtail (Setaria viridis, SETVI); assay: as above; conditions: rated 14 days after application, 0 = no damage, 100 = complete death
How it was run: as §2

[7] = test system: sicklepod (Cassia obtusifolia, CASOB); assay: as above; conditions: rated 14 days after application, 0 = no damage, 100 = complete death
How it was run: as §2

[8] = test system: large crabgrass (Digitaria sanguinalis, DIGSA); assay: as above; conditions: rated 14 days after application, 0 = no damage, 100 = complete death
How it was run: as §2

[9] = test system: lambsquarters (Chenopodium album, CHEAL); assay: as above; conditions: rated 14 days after application, 0 = no damage, 100 = complete death
How it was run: as §2

[10] = test system: ivyleaf morningglory (Ipomoea hederacea, IPOHE); assay: as above; conditions: rated 14 days after application, 0 = no damage, 100 = complete death
How it was run: as §2

[11] = test system: barnyardgrass (Echinochloa crus-galli, ECHCG); assay: as above; conditions: rated 14 days after application, 0 = no damage, 100 = complete death
How it was run: as §2

[12] = test system: upland rice (Oryza sp., var. Tebonnet, RICE); assay: Post-emerge test, crop safety; conditions: post-emerge, 14 days after application, rating scale 0-100
How it was run: (§3)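 Each test used a mechanized track sprayer delivering 187 l/ha of acetone solution at 15–1000 g ai/ha. Post-emerge foliage at 2–3 leaves was treated with added 0.25% v/v non-ionic surfactant and bottom-watered only. Injury was assessed on day 14, where 100 means total kill.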

[13] = test system: field corn (Zea mays L., var. Dekalb 535, CORN); assay: Post-emerge test, crop safety; conditions: post-emerge, 14 days after application, rating scale 0-100
How it was run: as §3

[14] = test system: velvetleaf (Abutilon theophrasti, ABUTH); assay: Post-emerge test, greenhouse herbicide activity screening; conditions: post-emerge, 14 days after application, rating scale 0-100
How it was run: (§4)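 Compounds in acetone were track-sprayed at 15-1000 g ai/ha (187 l/ha) on sandy loam pots: pre-emerge one day after seeding, post-emerge at 2-3 leaf stage with 0.25% v/v non-ionic surfactant. Phytotoxicity was rated 14 days later on a 0 (no damage) to 100 (complete death) scale.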

[15] = test system: johnsongrass (Sorghum halepense, SORHA); assay: as above; conditions: post-emerge, 14 days after application, rating scale 0-100
How it was run: as §4

[16] = test system: green foxtail (Setaria viridis, SETVI); assay: as above; conditions: post-emerge, 14 days after application, rating scale 0-100
How it was run: as §4

[17] = test system: sicklepod (Cassia obtusifolia, CASOB); assay: as above; conditions: post-emerge, 14 days after application, rating scale 0-100
How it was run: as §4

[18] = test system: large crabgrass (Digitaria sanguinalis, DIGSA); assay: as above; conditions: post-emerge, 14 days after application, rating scale 0-100
How it was run: as §4

[19] = test system: lambsquarters (Chenopodium album, CHEAL); assay: as above; conditions: post-emerge, 14 days after application, rating scale 0-100
How it was run: as §4

[20] = test system: ivyleaf morningglory (Ipomoea hederacea, IPOHE); assay: as above; conditions: post-emerge, 14 days after application, rating scale 0-100
How it was run: as §4

[21] = test system: barnyardgrass (Echinochloa crus-galli, ECHCG); assay: as above; conditions: post-emerge, 14 days after application, rating scale 0-100
How it was run: as §4

[22] = test system: redroot pigweed (Amaranthus retroflexus, AMARE); assay: as above; conditions: post-emerge, 14 days after application, rating scale 0-100
How it was run: as §4

COc1c(Cl)cc(F)c(-n2c(=O)cc(C(F)(F)F)n(C)c2=O)c1NC(=O)COc1ccccc1 [2-119]
40: phytotoxicity rating SETVI ([16]; 63 g ai/ha) | phytotoxicity rating ECHCG ([21]; 63 g ai/ha)
30: phytotoxicity rating CASOB ([17]; 63 g ai/ha) | phytotoxicity rating DIGSA ([18]; 63 g ai/ha)
20: Pre-emerge phytotoxicity rating (0-100), crop damage, CORN ([2]; 63 g ai/ha)
90: Pre-emerge phytotoxicity rating (0-100), crop damage, CORN ([2]; 250 g ai/ha) | Pre-emerge Herbicidal Activity, phytotoxicity rating (0-100), CASOB ([7]; 250 g ai/ha) | phytotoxicity rating RICE ([12]; 250 g ai/ha) | phytotoxicity rating CORN ([13]; 250 g ai/ha) | phytotoxicity rating SORHA ([15]; 250 g ai/ha) | phytotoxicity rating SETVI ([16]; 250 g ai/ha) | phytotoxicity rating ECHCG ([21]; 250 g ai/ha) | phytotoxicity rating AMARE ([22]; 63 g ai/ha)
60: Pre-emerge Herbicidal Activity, phytotoxicity rating (0-100), CASOB ([7]; 63 g ai/ha) | phytotoxicity rating RICE ([12]; 63 g ai/ha) | phytotoxicity rating SORHA ([15]; 63 g ai/ha) | phytotoxicity rating CASOB ([17]; 250 g ai/ha)
70: Pre-emerge phytotoxicity rating (0-100), crop damage, RICE ([1]; 63 g ai/ha) | Pre-emerge Herbicidal Activity, phytotoxicity rating (0-100), DIGSA ([8]; 63 g ai/ha) | Pre-emerge Herbicidal Activity, phytotoxicity rating (0-100), IPOHE ([10]; 63 g ai/ha) | Pre-emerge Herbicidal Activity, phytotoxicity rating (0-100), ECHCG ([11]; 63 g ai/ha) | phytotoxicity rating CORN ([13]; 63 g ai/ha)
75: Pre-emerge Herbicidal Activity, phytotoxicity rating (0-100), SORHA ([5]; 63 g ai/ha)
80: phytotoxicity rating DIGSA ([18]; 250 g ai/ha) | phytotoxicity rating CHEAL ([19]; 63 g ai/ha)
100: Pre-emerge phytotoxicity rating (0-100), crop damage, RICE ([1]; 250 g ai/ha) | Pre-emerge Herbicidal Activity, phytotoxicity rating (0-100), AMARE ([3]; 63 g ai/ha) | Pre-emerge Herbicidal Activity, phytotoxicity rating (0-100), AMARE ([3]; 250 g ai/ha) | Pre-emerge Herbicidal Activity, phytotoxicity rating (0-100), ABUTH ([4]; 63 g ai/ha) | Pre-emerge Herbicidal Activity, phytotoxicity rating (0-100), ABUTH ([4]; 250 g ai/ha) | Pre-emerge Herbicidal Activity, phytotoxicity rating (0-100), SORHA ([5]; 250 g ai/ha) | Pre-emerge Herbicidal Activity, phytotoxicity rating (0-100), SETVI ([6]; 63 g ai/ha) | Pre-emerge Herbicidal Activity, phytotoxicity rating (0-100), SETVI ([6]; 250 g ai/ha) | Pre-emerge Herbicidal Activity, phytotoxicity rating (0-100), DIGSA ([8]; 250 g ai/ha) | Pre-emerge Herbicidal Activity, phytotoxicity rating (0-100), CHEAL ([9]; 63 g ai/ha) | Pre-emerge Herbicidal Activity, phytotoxicity rating (0-100), CHEAL ([9]; 250 g ai/ha) | Pre-emerge Herbicidal Activity, phytotoxicity rating (0-100), IPOHE ([10]; 250 g ai/ha) | phytotoxicity rating ABUTH ([14]; 63 g ai/ha) | phytotoxicity rating ABUTH ([14]; 250 g ai/ha) | phytotoxicity rating CHEAL ([19]; 250 g ai/ha) | phytotoxicity rating IPOHE ([20]; 63 g ai/ha) | phytotoxicity rating IPOHE ([20]; 250 g ai/ha) | phytotoxicity rating AMARE ([22]; 250 g ai/ha)
95: Pre-emerge Herbicidal Activity, phytotoxicity rating (0-100), ECHCG ([11]; 250 g ai/ha)
